Source: patent US5091522A, “Retinoic esters of D-desosamine, process for their preparation and their use in human or veterinary medicine and in cosmetic compositions” (L'Oreal, priority 1989, dated 1992)
≈ marks a conversion by molar mass, not a printed value. Read-outs that look alike come from different tables or passages of the source.

Experiments:
Format in all cases: cell-based
[1] = system: Propionibacterium acnes P37; experiment: Minimum inhibiting concentration (MIC) by dilution method, P. acnes strain P37
Excerpt: (§1) The activity of retinoic esters of D-desosamines has been studied by the dilution method to determine the minimum inhibiting concentration (MIC). This method is described and employed by G. A. Denys et al, Antimicrobial Agents and Chemotherapy (1983) 23, 335-337 and J. J. Leyden et al, J.Am.Acad. Dermatol. (1983) 8 (1) 41-5, by using as the Propionibacterium acnes strain, strain P37 furnished by Cunliffe and Holland.
(§2) The minimum concentration (MIC), expressed in μg/ml of the retinoic esters of D-desosamine tested vis-a-vis strains of Propionibacterium acnes P37, P37 E⊕ and P37 E⊖ and staphilococcus epidermis ATCC 12228, is reported in the following table: […]

[2] = system: Propionibacterium acnes P37 E⊕; experiment: Minimum inhibiting concentration (MIC) by dilution method, P. acnes P37 E⊕ (erythromycin-sensitive population); conditions: Cutibacterium acnes
Excerpt: as §1
(§3) On the other hand, after 8 successive sub-cultures in the same medium (RCM* 19/20, DMSO 1/20 by volume) with the view of obtaining a progressive stabilization of this strain in this medium, a progressive resistance to erythromycin was manifested in the following form:
(§4) after spreading a standardized inoculum (DO=1.8 at 450 nm) on a gelose medium (RCM+furazolidone), in a Petri dish, a 9 mm diameter disc is deposited at its center. On the disc, 50 μg of erythromycin (in solution in DMSO) are deposited.
(§5) The two types of colonies are then retained by stripping of the gelose medium (sterilized platinum loop):
(2) at 1 cm beyond the periphery of the inhibition zone, there are stripped off strains called P37 E⊕.
(§6) After isolation and culturing, the P37 E⊕ and P37 E⊖ strains effectively show very different sensitivities to erythromycin as illustrated by the following MIC values:
as §2

[3] = system: staphilococcus epidermis ATCC 12228; experiment: Minimum inhibiting concentration (MIC) by dilution method, staphilococcus epidermis ATCC 12228; conditions: read-out: minimum concentration (MIC), TABLE I
Excerpt: as §1, §2

[4] = system: Propionibacterium acnes P37 E⊖; experiment: Minimum inhibiting concentration (MIC) by dilution method, P. acnes P37 E⊖ (erythromycin-resistant population); conditions: Cutibacterium acnes, P37E.CRCLBAR.
Excerpt: as §1, §3, §4, §5
(1) at the interior of the inhibition zone there are stripped off strains, called P37 E⊖ by reason of their apparent resistance to erythromycin.
as §6, §2

[5] = system: Propionibacterium acnes P37 E⊕; experiment: IC 50 (50% survivors among the population at constant culturing time), P37 E⊕; conditions: Cutibacterium acnes, read-out: IC 50 (inhibiting concentration at 50%)
Excerpt: (§7) This phenomenon is confirmed by the study of the IC 50 (inhibiting concentration at 50% which represents the concentration of erythromycin where, at a constant culturing time, 50% survivors among the population are found

[6] = system: Propionibacterium acnes P37; experiment: IC 50 (50% survivors among the population at constant culturing time), P37; conditions: Cutibacterium acnes, P37, read-out: IC 50 (inhibiting concentration at 50%)
Excerpt: as §7

[7] = system: Propionibacterium acnes P37 E⊖; experiment: IC 50 (50% survivors among the population at constant culturing time), P37 E⊖; conditions: Cutibacterium acnes, P37E.CRCLBAR., read-out: IC 50 (inhibiting concentration at 50%)
Excerpt: as §7

[8] = system: Propionibacterium acnes strain P37; experiment: Disc inhibition zone on gelose medium; conditions: Cutibacterium acnes, P37, 144 h; 50 μg erythromycin on 9 mm disc; 6 days at 36 C, anaerobic; RCM+furazolidone; after 8 sub-cultures; read-out: inhibition zone of the growth of the strain (total diameter)
Method: as §3, §4
After 6 days at 36.C in an anaerobic medium (GAS-PAK, B.B.L. system) an inhibition zone of the growth of the strain is clearly visible (total diameter =42 mm), the majority of the colonies being situated at the periphery of the inhibition zone.

[9] = Cutibacterium acnes, P37; read-out: minimum concentration (MIC), TABLE I
[10] = P37E.SYM., P37 E⊕, read-out: minimum concentration (MIC), TABLE I
[11] = read-out: minimum concentration (MIC), TABLE I
[12] = Cutibacterium acnes, P37, read-out: minimum concentration (MIC), TABLE I

Compound | MIC [1, 9] [µg/mL] | MIC [2, 10] [µg/mL] | MIC ([3]; ATCC 12228) [µg/mL] | MIC [4, 11] [µg/mL] | further results
CCCCOC1O[C@H](C)C[C@H](N(C)C)[C@H]1O (stereo partly drawn) [O-butyl-1-α,β-D-desosamine, reference compound] | > 100 | > 100 | > 100 | > 110 | –
CO[C@H]1O[C@H](COC(=O)\C=C(C)/C=C/C=C(C)/C=C/C2=C(C)CCCC2(C)C)[C@@H](O)[C@H](O)[C@H]1O [O-retinoyl (13 cis)-6-O-methyl-1-α-D-glucopyrannose, reference compound] | > 45 | > 45 | > 45 | > 45 | –
CCCCOC1O[C@H](C)C[C@H](N(C)C)[C@H]1OC(=O)/C=C(C)/C=C/C=C(C)/C=C/c1c(C)cc(OC)c(C)c1C (stereo partly drawn) [Compound 5, O-etretinoyl (all trans)-2-O-butyl-1-α,β-D-desosamine] | 3 (≈ 5.56 µM) | 6 (≈ 11.1 µM) | 6 (≈ 11.1 µM) | 6 (≈ 11.1 µM) | –
CC[C@H]1OC(=O)[C@H](C)[C@@H](O[C@H]2C[C@@](C)(OC)[C@@H](O)[C@H](C)O2)[C@H](C)[C@@H](O[C@@H]2O[C@H](C)C[C@H](N(C)C)[C@H]2O)[C@](C)(O)C[C@@H](C)C(=O)[C@H](C)[C@@H](O)[C@]1(C)O [erythromycin] | – | – | – | – | MIC ([1]; Cutibacterium acnes, P37): 0.78 µg/mL (≈ 1.06 µM); MIC [2]: 0.78 µg/mL (≈ 1.06 µM); IC50 [5]: 5 µg/mL (≈ 6.81 µM); IC50 [6]: 50 µg/mL (≈ 68.1 µM); MIC [4]: 50 µg/mL (≈ 68.1 µM); IC50 [7]: 100 µg/mL (≈ 136 µM); zone of inhibition at 50 µg/disc [8]: 42 mm
CCCCOC1O[C@H](C)C[C@H](N(C)C)[C@H]1OC(=O)/C=C(C)/C=C/C=C(C)/C=C/C1=C(C)CCCC1(C)C (stereo partly drawn) [Compound 2, O-retinoyl (all trans)-2-O-butyl-1-α-β-D-desosamine] | 15 (≈ 29.2 µM) | 25 (≈ 48.7 µM) | 3.5 (≈ 6.81 µM) | 9 (≈ 17.5 µM) | –
C[C@@H]1C[C@H](N(C)C)[C@@H](O)C(O)O1 (stereo partly drawn) [α,β-D-desosamine, reference compound] | – | – | – | > 70 | MIC [1, 12]: > 50 µg/mL; MIC [2, 11]: > 70 µg/mL; MIC [3]: > 50 µg/mL
CCCCO[C@@H]1O[C@H](C)C[C@H](N(C)C)[C@H]1OC(=O)/C=C(C)/C=C/C=C(C)/C=C/c1c(C)cc(OC)c(C)c1C [Compound 7, O-etretinoyl (all trans)-2-O-butyl-1-β-D-desosamine] | 5.2 (≈ 9.63 µM) | 40 (≈ 74.1 µM) | 2.3 (≈ 4.26 µM) | 14.5 (≈ 26.9 µM) | –
CCCCOC1O[C@H](C)C[C@H](N(C)C)[C@H]1OC(=O)\C=C(C)/C=C/C=C(C)/C=C/C1=C(C)CCCC1(C)C (stereo partly drawn) [Compound 1, O-retinoyl (13 cis)-2-O-butyl-1-α,β-D-desosamine] | – | 21 (≈ 40.9 µM) | 18.5 (≈ 36 µM) | 10.5 (≈ 20.4 µM) | MIC [1, 12]: 10.5 µg/mL (≈ 20.4 µM)
CCCCO[C@H]1O[C@H](C)C[C@H](N(C)C)[C@H]1OC(=O)/C=C(C)/C=C/C=C(C)/C=C/c1c(C)cc(OC)c(C)c1C [Compound 6, O-etretinoyl (all trans)-2-O-butyl-1-α-D-desosamine] | 19 (≈ 35.2 µM) | 4.3 (≈ 7.97 µM) | 1.5 (≈ 2.78 µM) | 2.1 (≈ 3.89 µM) | –
